Publication PMC10392906 (Advances and Applications in Bioinformatics and Chemistry : …, 2023)

Target: T1, pancreatic porcine α-amylase (Sus scrofa, UniProt P00690)
T1 sequence (P00690 16-511): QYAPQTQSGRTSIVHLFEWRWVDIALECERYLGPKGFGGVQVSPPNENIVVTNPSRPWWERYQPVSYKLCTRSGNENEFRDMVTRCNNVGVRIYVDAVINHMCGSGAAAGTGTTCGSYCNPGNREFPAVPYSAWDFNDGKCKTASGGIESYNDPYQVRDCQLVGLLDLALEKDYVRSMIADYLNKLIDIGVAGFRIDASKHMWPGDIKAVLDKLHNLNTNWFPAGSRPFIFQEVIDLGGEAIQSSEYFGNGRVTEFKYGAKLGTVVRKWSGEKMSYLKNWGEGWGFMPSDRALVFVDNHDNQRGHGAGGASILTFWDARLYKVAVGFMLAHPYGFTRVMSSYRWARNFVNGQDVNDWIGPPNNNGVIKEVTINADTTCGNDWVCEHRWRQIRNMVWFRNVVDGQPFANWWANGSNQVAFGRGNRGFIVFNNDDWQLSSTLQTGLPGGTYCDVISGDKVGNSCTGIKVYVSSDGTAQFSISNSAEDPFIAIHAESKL
Experiment: α-Amylase inhibitory assay
Assay type: biochemical
Details: for inhibition at 10 µg/mL: read-out: % of Inhibition of α-amylase (Mean ± S.D.), 10 µg/mL

For COc1cc(C=Cc2cc(-c3ccccc3)nc(O)n2)ccc1O [Compound 11, 4-(4-Hydroxy-3-Methoxystyryl)-6-Phenylpyrimidin-2-ol], the inhibition at 10 µg/mL was 85.17 ± 0.55%.

For COc1cc(C=CC(=O)CC(c2ccc(N(C)C)cc2)n2ccnc2)ccc1O (stereo not shown) [Compound 16, 5-(4-(Dimethylamino)phenyl)-1-(4-Hydroxy-3-Methoxyphenyl)-5-(1H-Imidazol-1-yl)pent-1-En-3-One], the inhibition at 10 µg/mL was 87.15 ± 0.46% and the “α-amylase inhibitory effect better than acarbose” value (versus acarbose) was “up to 2 fold”.

For “4-(-2-(3-(4-(Dimethylamino)phenyl)-4,5-Dihydro-1H-Pyrazol-5-yl)vinyl)-2-Methoxyphenol [Compound 8]”, the “% of Inhibition of α-amylase (Mean ± S.D.)” value (10 µg/mL) was 85.32±0.36%.
